Measured values taken from patent publication EP1063290A1, “NOVEL DICARBONYLREDUCTASE AND GENE ENCODING THE SAME” (TAISHO PHARMACEUTICAL CO., LTD, priority 1998, dated 1999).
Where two headings read alike, the source gives them in different places.

What was measured:
[1] = target: protein hDCR1 (Homo sapiens, UniProt Q7Z4W1); assay: Dicarbonyl reductase activity assay: substrate specificity (NAD(P)H oxidation at 340 nm); settings: against a reference of 100 for diacetyl
Experimental: (§1) The enzyme activity assay method is not particularly restricted, and it may be based on the activity assay method for mouse carbonyl reductase (CR) (Eur. J. Biochem. 22, 381-387(1995)). The enzyme used here was an expressed recombinant enzyme. • (a) Substrate specificity: In order to determine the substrate specificity, there may be used a hydrocarbon system including various ketone, aldehyde and ester groups, or an aromatic compound.
(§2) The reaction mixture (total: 2.0 ml) comprised an 80 mM potassium phosphate solution (pH 7.0 or 6.0), 0.1 mM NADPH or NADH and a carbonyl substrate or enzyme (50 µl) (10.1 µg or 3.7 µg of hDCR1).
The oxidation rate for NAD(P)H was measured at 340 nm.
One unit of enzyme activity was defined as that which catalyzed oxidation of 1 µmol of NAD(P)H in one minute at 25°C.

[2] = test system: dicarbonyl reductase of the invention; assay: Substrate reactivity features summarised from Tables 1, 2 and 3; type: biochemical; settings: summary in words of Tables 1, 2 and 3
[3] = target: protein DCR1 (Mus musculus, UniProt Q91X52); assay: Dicarbonyl reductase activity assay: substrate specificity and rate constants (NAD(P)H oxidation at 340 nm); settings: for substrate ranking (smallest Km values, higher catalyst efficiency Vmax/Km): mouse enzyme, Table 2, result in words
Sequence of protein DCR1 (Q91X52 whole entry): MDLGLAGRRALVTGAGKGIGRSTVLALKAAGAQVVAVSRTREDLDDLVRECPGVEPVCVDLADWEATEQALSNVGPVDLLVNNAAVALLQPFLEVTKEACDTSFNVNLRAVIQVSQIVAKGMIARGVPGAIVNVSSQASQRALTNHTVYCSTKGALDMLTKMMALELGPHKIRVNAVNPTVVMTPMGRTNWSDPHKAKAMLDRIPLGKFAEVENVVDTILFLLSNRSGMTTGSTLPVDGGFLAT
Experimental: as §1
as §2, with “• (1) This was assayed under the following conditions. The” for “The”, “glomerin B). The oxidation rate for NAD(P)H was measured at 340 nm.” for “hDCR1).”

[4] = target: T1, dicarbonyl reductase of the invention (Mus musculus, UniProt Q91X52); assay: Effects of metal ions and inhibitors on residual enzyme activity; type: biochemical; settings: after treating the enzyme with metals and inhibitors
T1 construct: made in house; host or cells: E. coli K12
T1 sequence (Q91X52 whole entry): as above
Experimental: However, since one of their substrates, NADPH, is degraded at below pH 5, activity assay is not possible in that range when NADPH is used and the peak cannot be determined. The examples were therefore carried out at near pH 7, although the optimum pH is not limited to near 7. • (7) pH stability: For example, DCR1 and hDCR1 are incubated for 3 hours at 25°C in buffer solutions with different pH values, and the residual activity is then measured and compared and recorded as relative activity with respect to the value at pH 8.0 with no incubation. • (8) Effects of metal ions and inhibitors: After treating the enzyme with different metals and inhibitors, the residual activity was evaluated.

[5] = target: T2, hamster liver diacetyl reductase (Hamster DR) (Mesocricetus auratus, UniProt Q91XV4); assay: Inhibition of the enzyme reaction; type: biochemical; settings: for inhibition at 100 µM / inhibition at 1000 µM: read-out: Inhibition (%) Hamster DR
T2 construct: from tissue; host or cells: hamster liver
T2 sequence (Q91XV4 whole entry): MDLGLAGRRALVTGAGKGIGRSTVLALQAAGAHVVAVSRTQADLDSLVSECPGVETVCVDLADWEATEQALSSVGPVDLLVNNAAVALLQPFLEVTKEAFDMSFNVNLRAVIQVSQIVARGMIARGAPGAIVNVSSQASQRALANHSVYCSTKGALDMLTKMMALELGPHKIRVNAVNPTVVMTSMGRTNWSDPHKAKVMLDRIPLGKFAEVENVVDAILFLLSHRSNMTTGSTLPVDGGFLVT
From the text: (§3) Two enzymes were used here, mouse DCR1 and hamster liver diacetyl reductase (Hamster DR).

[6] = target: T3, mouse DCR1 (Mus musculus, UniProt Q91X52); assay: Inhibition of the enzyme reaction; type: biochemical
T3 construct: made in house; host or cells: E. coli K12
T3 sequence (Q91X52 whole entry): as the sequence (Q91X52 whole entry) above
From the text: as §3

[7] = substrate concentration 1,000 μM
[8] = substrate concentration 1,000 μM, against a reference of 100 for diacetyl
[9] = compound concentration 0.1 mM, read-out: Inhibition (%) CDR1
[10] = compound concentration 0.001 mM

Sequence of protein hDCR1 (Q7Z4W1 whole entry): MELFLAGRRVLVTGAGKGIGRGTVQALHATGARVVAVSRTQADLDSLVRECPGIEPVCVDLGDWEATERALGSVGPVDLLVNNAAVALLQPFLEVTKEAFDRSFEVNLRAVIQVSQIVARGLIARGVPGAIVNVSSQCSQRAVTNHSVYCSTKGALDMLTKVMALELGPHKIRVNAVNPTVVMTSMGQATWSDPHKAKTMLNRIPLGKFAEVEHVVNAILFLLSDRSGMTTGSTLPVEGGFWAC

O=C(CBr)C(=O)CBr [1,4-dibromo-2,3-butanedione]
RA (%) relative activity [1, 7]: 133%
reactivity (as substrate) [2]: strong reactivity

CC(=O)C(=O)c1ccccc1 [1-Phenyl-1,2-propanedione]
substrate ranking (smallest Km values, higher catalyst efficiency Vmax/Km) [3]: best substrates
RA (%) relative activity [3, 8]: 148%
RA (%) relative activity [1, 7]: 65%
reactivity (as substrate) [2]: strong reactivity

CCCCC(=O)C(C)=O [2,3-Heptanedione]
RA (%) relative activity [3, 8]: 134%
RA (%) relative activity [1, 7]: 174%
reactivity (as substrate) [2]: strong reactivity

CCCC(=O)C(C)=O [2,3-Hexanedione]
RA (%) relative activity [3, 8]: 108%
RA (%) relative activity [1, 7]: 168%
reactivity (as substrate) [2]: strong reactivity

CCC(=O)C(C)=O [2,3-Pentanedione]
RA (%) relative activity [3]: 163%
RA (%) relative activity [1, 7]: 167%
reactivity (as substrate) [2]: strong reactivity

CCC(=O)C(=O)CC [3,4-Hexanedione]
substrate ranking (smallest Km values, higher catalyst efficiency Vmax/Km) [3]: best substrates
RA (%) relative activity [3, 8]: 232%
RA (%) relative activity [1, 7]: 170%
reactivity (as substrate) [2]: strong reactivity

O=C1C(=O)c2cccc3cccc1c23 [Acenaphthenequinone]
RA (%) relative activity ([3]; substrate concentration 25 μM, against a reference of 100 for diacetyl): 14.1%
RA (%) relative activity ([1]; substrate concentration 25 μM): 181%
reactivity (as substrate) [2]: strong reactivity

[Ca+2].[Cl-].[Cl-] [CaCl2]
effect on the enzyme (residual activity) [4]: virtually no effect

C=C(CC)C(=O)c1ccc(OCC(=O)O)c(Cl)c1Cl [Ethacrynic acid]
inhibition at 100 µM ([5]; compound concentration 0.1 mM): 3%
inhibition at 100 µM [6, 9]: 0%

O=C1Nc2ccccc2C1=O [Isatin]
RA (%) relative activity ([3]; substrate concentration 400 μM, against a reference of 100 for diacetyl): 106.7%
RA (%) relative activity ([1]; substrate concentration 500 μM): 252%
reactivity (as substrate) [2]: strong reactivity

CC(C)CN [Isobutylamine]
inhibition at 1000 µM ([5]; compound concentration 1 mM): 50%
inhibition at 1000 µM ([6]; compound concentration 1 mM, read-out: Inhibition (%) CDR1): 16%

O=C(O)c1ccncc1 [Isonicotinic acid]
inhibition at 100 µM ([5]; compound concentration 0.1 mM): 4%
inhibition at 100 µM [6, 9]: 0%

[Cl-].[Cl-].[Mg+2] [MgCl2]
effect on the enzyme (residual activity) [4]: virtually no effect

c1cn[nH]c1 [Pyrazole]
inhibition at 10000 µM ([5]; compound concentration 10 mM): 5%
inhibition at 10000 µM ([6]; compound concentration 10 mM, read-out: Inhibition (%) CDR1): 29%

O=c1c(O)c(-c2ccc(O)c(O)c2)oc2cc(O)cc(O)c12 [Quercitin]
inhibition at 100 µM ([5]; compound concentration 0.1 mM): 33%
inhibition at 100 µM [6, 9]: 50%

O=C(O)CC1(CC(=O)O)CCCC1 [Tetramethyleneglutaric acid]
inhibition at 100 µM [5]: 63%
inhibition at 100 µM ([6]; read-out: Inhibition (%) CDR1): 0%

c1cnc2c(c1)ccc1cccnc12 [o-Phenanthroline]
inhibition at 1000 µM [5]: 0%
inhibition at 1000 µM ([6]; read-out: Inhibition (%) CDR1): 8%

Cibacron blue dye
Inhibition (%) Hamster DR [5, 10]: 18%
Inhibition (%) CDR1 [6, 10]: 21%
